Reference: ChEMBL document CHEMBL3885881, “DrugMatrix”

Species: Rattus norvegicus
Test: DrugMatrix - Regimen: Daily Repeat
Type: toxicity, organism-based, Sprague-Dawley
Design: regimen Daily Repeat, gender Male, age 6-8 weeks
Conditions: in vivo, po, route oral GAVAGE, vehicle 100 % WATER; for BASOPHIL / EOSINOPHIL / ERYTHROCYTE COUNT / HEMATOCRIT / HEMOGLOBIN / LEUKOCYTE COUNT / LYMPHOCYTE / MEAN CORPUSCULAR HEMOGLOBIN / MEAN CORPUSCULAR HEMOGLOBIN CONCENTRATION / MEAN CORPUSCULAR VOLUME / MONOCYTE / NEUTROPHIL / PLATELET COUNT: tissue Blood; for ALANINE AMINOTRANSFERASE / ALBUMIN / ALKALINE PHOSPHATASE / ASPARTATE AMINOTRANSFERASE / BLOOD UREA NITROGEN / CHLORIDE / CHOLESTEROL / CREATINE PHOSPHOKINASE / CREATININE / GLUCOSE / PHOSPHORUS / POTASSIUM / SODIUM / TOTAL BILIRUBIN / TOTAL PROTEIN: tissue Plasma
[1] = 0 mg/kg, 72 h, dose level Control, time 3 day
[2] = 0 mg/kg, 120 h, dose level Control, time 5 day
[3] = 10 mg/kg, 72 h, dose level Low, time 3 day
[4] = 10 mg/kg, 120 h, dose level Low, time 5 day
[5] = 1500 mg/kg, 72 h, dose level High, time 3 day
[6] = 1500 mg/kg, 120 h, dose level High, time 5 day

## O=C(O)c1cc(=O)c2c(OCC(O)COc3cccc4oc(C(=O)O)cc(=O)c34)cccc2o1 [CROMOLYN]
[1]
  BASOPHIL: 0%
  EOSINOPHIL: 0.33%
  ERYTHROCYTE COUNT: 5.88 x10E6/uL
  HEMATOCRIT: 36.47%
  HEMOGLOBIN: 14.2 G/DL
  LEUKOCYTE COUNT: 9.28 x10E3/uL
  LYMPHOCYTE: 82.33%
  MEAN CORPUSCULAR HEMOGLOBIN: 24.2 pg
  MEAN CORPUSCULAR HEMOGLOBIN CONCENTRATION: 38.97 G/DL
  MEAN CORPUSCULAR VOLUME: 62.12 fL
  MONOCYTE: 2.33%
  NEUTROPHIL: 15%
  PLATELET COUNT: 1114 x10E3/uL
  ALANINE AMINOTRANSFERASE: 41.17 u/L
  ALBUMIN: 3.95 G/DL
  ALKALINE PHOSPHATASE: 382.5 u/L
  ASPARTATE AMINOTRANSFERASE: 67.33 u/L
  BLOOD UREA NITROGEN: 15.5 mg/dL
  CHLORIDE: 106.33 MEQ/L
  CHOLESTEROL: 77.67 mg/dL
  CREATINE PHOSPHOKINASE: 123.33 u/L
  CREATININE: 0.62 mg/dL
  GLUCOSE: 185.67 mg/dL
  PHOSPHORUS: 10.2 mg/dL
  POTASSIUM: 6.72 MEQ/L
  SODIUM: 149.67 MEQ/L
  TOTAL BILIRUBIN: 0.97 mg/dL
  TOTAL PROTEIN: 6.58 G/DL
[2]
  BASOPHIL: 0%
  EOSINOPHIL: 0%
  ERYTHROCYTE COUNT: 5.99 x10E6/uL
  HEMATOCRIT: 36.88%
  HEMOGLOBIN: 14.77 G/DL
  LEUKOCYTE COUNT: 11.35 x10E3/uL
  LYMPHOCYTE: 85.5%
  MEAN CORPUSCULAR HEMOGLOBIN: 24.7 pg
  MEAN CORPUSCULAR HEMOGLOBIN CONCENTRATION: 40.07 G/DL
  MEAN CORPUSCULAR VOLUME: 61.58 fL
  MONOCYTE: 1.83%
  NEUTROPHIL: 12.67%
  PLATELET COUNT: 979.67 x10E3/uL
  ALANINE AMINOTRANSFERASE: 36.5 u/L
  ALBUMIN: 3.63 G/DL
  ALKALINE PHOSPHATASE: 303.5 u/L
  ASPARTATE AMINOTRANSFERASE: 61 u/L
  BLOOD UREA NITROGEN: 16.5 mg/dL
  CHLORIDE: 106.17 MEQ/L
  CHOLESTEROL: 60.5 mg/dL
  CREATINE PHOSPHOKINASE: 154.83 u/L
  CREATININE: 0.6 mg/dL
  GLUCOSE: 201 mg/dL
  PHOSPHORUS: 10.1 mg/dL
  POTASSIUM: 6.85 MEQ/L
  SODIUM: 148.17 MEQ/L
  TOTAL BILIRUBIN: 0.58 mg/dL
  TOTAL PROTEIN: 5.9 G/DL
[3]
  BASOPHIL: 0%
  EOSINOPHIL: 0%
  ERYTHROCYTE COUNT: 5.62 x10E6/uL
  HEMATOCRIT: 34.93%
  HEMOGLOBIN: 13.6 G/DL
  LEUKOCYTE COUNT: 10.7 x10E3/uL
  LYMPHOCYTE: 79%
  MEAN CORPUSCULAR HEMOGLOBIN: 24.23 pg
  MEAN CORPUSCULAR HEMOGLOBIN CONCENTRATION: 38.93 G/DL
  MEAN CORPUSCULAR VOLUME: 62.2 fL
  MONOCYTE: 2.33%
  NEUTROPHIL: 18.67%
  PLATELET COUNT: 1007 x10E3/uL
  ALANINE AMINOTRANSFERASE: 38.67 u/L
  ALBUMIN: 3.87 G/DL
  ALKALINE PHOSPHATASE: 381.33 u/L
  ASPARTATE AMINOTRANSFERASE: 60.67 u/L
  BLOOD UREA NITROGEN: 13 mg/dL
  CHLORIDE: 107.33 MEQ/L
  CHOLESTEROL: 71.67 mg/dL
  CREATINE PHOSPHOKINASE: 119.67 u/L
  CREATININE: 0.6 mg/dL
  GLUCOSE: 182 mg/dL
  PHOSPHORUS: 10.4 mg/dL
  POTASSIUM: 6.6 MEQ/L
  SODIUM: 150.33 MEQ/L
  TOTAL BILIRUBIN: 0.8 mg/dL
  TOTAL PROTEIN: 6.33 G/DL
[4]
  BASOPHIL: 0%
  EOSINOPHIL: 0.33%
  ERYTHROCYTE COUNT: 5.82 x10E6/uL
  HEMATOCRIT: 35.37%
  HEMOGLOBIN: 14.43 G/DL
  LEUKOCYTE COUNT: 10.43 x10E3/uL
  LYMPHOCYTE: 85%
  MEAN CORPUSCULAR HEMOGLOBIN: 24.83 pg
  MEAN CORPUSCULAR HEMOGLOBIN CONCENTRATION: 40.83 G/DL
  MEAN CORPUSCULAR VOLUME: 60.73 fL
  MONOCYTE: 2.33%
  NEUTROPHIL: 12.33%
  PLATELET COUNT: 932 x10E3/uL
  ALANINE AMINOTRANSFERASE: 38 u/L
  ALBUMIN: 3.73 G/DL
  ALKALINE PHOSPHATASE: 274 u/L
  ASPARTATE AMINOTRANSFERASE: 62.33 u/L
  BLOOD UREA NITROGEN: 13.33 mg/dL
  CHLORIDE: 109 MEQ/L
  CHOLESTEROL: 60.33 mg/dL
  CREATINE PHOSPHOKINASE: 101.67 u/L
  CREATININE: 0.73 mg/dL
  GLUCOSE: 167.33 mg/dL
  PHOSPHORUS: 9.73 mg/dL
  POTASSIUM: 6.7 MEQ/L
  SODIUM: 151.33 MEQ/L
  TOTAL BILIRUBIN: 0.67 mg/dL
  TOTAL PROTEIN: 5.87 G/DL
[5]
  BASOPHIL: 0%
  EOSINOPHIL: 0.33%
  ERYTHROCYTE COUNT: 5.31 x10E6/uL
  HEMATOCRIT: 33.07%
  HEMOGLOBIN: 13.3 G/DL
  LEUKOCYTE COUNT: 10.3 x10E3/uL
  LYMPHOCYTE: 79.67%
  MEAN CORPUSCULAR HEMOGLOBIN: 25.1 pg
  MEAN CORPUSCULAR HEMOGLOBIN CONCENTRATION: 40.3 G/DL
  MEAN CORPUSCULAR VOLUME: 62.23 fL
  MONOCYTE: 1%
  NEUTROPHIL: 18.67%
  PLATELET COUNT: 969.67 x10E3/uL
  ALANINE AMINOTRANSFERASE: 36 u/L
  ALBUMIN: 3.9 G/DL
  ALKALINE PHOSPHATASE: 383.5 u/L
  ASPARTATE AMINOTRANSFERASE: 60 u/L
  BLOOD UREA NITROGEN: 13 mg/dL
  CHLORIDE: 106 MEQ/L
  CHOLESTEROL: 72 mg/dL
  CREATINE PHOSPHOKINASE: 122 u/L
  CREATININE: 0.5 mg/dL
  GLUCOSE: 179 mg/dL
  PHOSPHORUS: 9.8 mg/dL
  POTASSIUM: 6.7 MEQ/L
  SODIUM: 150 MEQ/L
  TOTAL BILIRUBIN: 0.5 mg/dL
  TOTAL PROTEIN: 6.25 G/DL
[6]
  BASOPHIL: 0%
  EOSINOPHIL: 0%
  ERYTHROCYTE COUNT: 6.38 x10E6/uL
  HEMATOCRIT: 37.77%
  HEMOGLOBIN: 14.93 G/DL
  LEUKOCYTE COUNT: 13.03 x10E3/uL
  LYMPHOCYTE: 83.33%
  MEAN CORPUSCULAR HEMOGLOBIN: 23.43 pg
  MEAN CORPUSCULAR HEMOGLOBIN CONCENTRATION: 39.57 G/DL
  MEAN CORPUSCULAR VOLUME: 59.27 fL
  MONOCYTE: 0.67%
  NEUTROPHIL: 16%
  PLATELET COUNT: 1070.67 x10E3/uL
  ALANINE AMINOTRANSFERASE: 36.33 u/L
  ALBUMIN: 3.77 G/DL
  ALKALINE PHOSPHATASE: 352 u/L
  ASPARTATE AMINOTRANSFERASE: 63 u/L
  BLOOD UREA NITROGEN: 15.33 mg/dL
  CHLORIDE: 106 MEQ/L
  CHOLESTEROL: 50.67 mg/dL
  CREATINE PHOSPHOKINASE: 125.33 u/L
  CREATININE: 0.63 mg/dL
  GLUCOSE: 177.67 mg/dL
  PHOSPHORUS: 10.5 mg/dL
  POTASSIUM: 7.1 MEQ/L
  SODIUM: 150 MEQ/L
  TOTAL BILIRUBIN: 0.57 mg/dL
  TOTAL PROTEIN: 6.13 G/DL
